{
  "source": "PubChem BioAssay AID1996",
  "data": [
    {"details": "buffer; pH 7.4; 200.0 µM", "units": {"solubility kinetic": "µg/mL"}, "values": [
      {"compound": "COc1ccc(S(=O)(=O)Nc2cc3[nH]c(=O)oc3cc2C)cc1", "solubility kinetic": "> 50.2"},
      {"compound": "Cc1c(C(=O)N2CCN(c3ccccn3)CC2)oc2c(F)cccc12", "solubility kinetic": 33.2},
      {"compound": "O=C(CSc1ccc([N+](=O)[O-])cc1)NCC1CCCCC1", "solubility kinetic": 8.2},
      {"compound": "Cc1ccccc1Nc1c(-c2cccnc2)nc2ccccn12", "solubility kinetic": 17.6},
      {"compound": "S=c1[nH]cnc2scc(-c3ccc(Cl)cc3)c12", "solubility kinetic": 0.5},
      {"compound": "Cc1cc2oc(=O)cc(CN3CCC(C)CC3)c2cc1C", "solubility kinetic": 4.1},
      {"compound": "Cc1nc(-c2cccc(NC(=O)Cc3ccccc3)c2)cs1", "solubility kinetic": 30.1},
      {"compound": "CCOc1ccc(S(=O)(=O)N2CCN(C(=O)C3CC3C)CC2)cc1", "note": "(stereo not drawn)", "solubility kinetic": 51.7},
      {"compound": "O=C(NC1CCCC1)C1CCN(S(=O)(=O)c2ccccc2)CC1", "solubility kinetic": 44.2},
      {"compound": "c1ccc2c(CN3CCSCC3)cccc2c1", "solubility kinetic": 4.2},
      {"compound": "c1ccc2[nH]c(-c3ccncc3)nc2c1", "solubility kinetic": "> 29.3"},
      {"compound": "Cc1cc(C(=O)Nc2c(F)cc(F)cc2Br)cs1", "solubility kinetic": 25.9},
      {"compound": "CC(N=C1NS(=O)(=O)c2ccccc21)C(=O)NCc1ccc(F)cc1", "note": "(stereo not drawn)", "solubility kinetic": "> 54.2"},
      {"compound": "O=C(COC(=O)c1c(Cl)cccc1Cl)NC1CCCCC1", "solubility kinetic": "> 49.5"},
      {"compound": "CCN(CC)C(=O)c1ccc(CS(=O)(=O)Cc2ccccc2)cc1", "solubility kinetic": "> 51.8"},
      {"compound": "CCN(CC)c1ccc(C(=S)NC2CCCCC2)cc1", "solubility kinetic": 2},
      {"compound": "CN(C)CCO[C@@H](c1ccc(Cl)cc1)c1ccccn1.O=C(O)/C=C\\C(=O)O", "solubility kinetic": "> 61"},
      {"compound": "Cc1nnc(NS(=O)(=O)c2ccc(N)cc2)s1", "solubility kinetic": "> 40.5"},
      {"compound": "CN(C)C(=O)O/N=C(\\N)COc1ccc(C(C)(C)C)cc1", "solubility kinetic": 36},
      {"compound": "OCC1(CCCc2ccccc2)CCN(C2CCC2)CC1", "solubility kinetic": "> 43.1"},
      {"compound": "O=C(O)CC1(CC(=O)Nc2ccc3sccc3c2)CCCCC1", "solubility kinetic": 42.6},
      {"compound": "CCC(=O)Nc1cc(-c2nc3ncccc3o2)ccc1Cl", "solubility kinetic": 13.8},
      {"compound": "O=C(OCC(=O)N1CCCC1)c1ccc(Cl)c([N+](=O)[O-])c1", "solubility kinetic": 31.8},
      {"compound": "CC(C)C(=O)N1CCN(c2nc3ccc(Cl)cc3s2)CC1", "solubility kinetic": "> 48.6"},
      {"compound": "Cc1cc(C)nc(NC(=O)/C=C/c2ccc(Cl)cc2)n1", "solubility kinetic": 42.1},
      {"compound": "CC(C)c1ccc(CNC(=O)C(=O)NCC2CCCO2)cc1", "note": "(stereo not drawn)", "solubility kinetic": 28.5},
      {"compound": "O=[N+]([O-])c1ccc(O)c(C=Nc2cccc3ccccc23)c1", "solubility kinetic": 24.6},
      {"compound": "CC(C)CNC(=O)COc1ncnc2sccc12", "solubility kinetic": "> 39.8"},
      {"compound": "S=c1[nH]c2cnccc2n1Cc1ccccc1", "solubility kinetic": 5.7},
      {"compound": "Cc1cc(C(=O)COC(=O)C23CC4CC(CC(O)(C4)C2)C3)c(C)n1C", "solubility kinetic": "> 51.8"},
      {"compound": "O=C1c2ccccc2C(=O)N1S(=O)(=O)c1ccccc1", "solubility kinetic": "> 43.1"},
      {"compound": "O=C(CNCc1ccc(F)cc1)Nc1ccccc1[N+](=O)[O-]", "solubility kinetic": 32.7},
      {"compound": "Cc1nnc(SCC(=O)N(C)C2CCCCC2)s1", "solubility kinetic": "> 42.8"},
      {"compound": "COc1ccc2nc(C)cc(N3CCN(c4ccccc4)CC3)c2c1", "solubility kinetic": 2.7},
      {"compound": "COc1ccc(NC(=O)Nc2ccc3nonc3c2)cc1", "solubility kinetic": 5.3},
      {"compound": "S=C(NCCc1c[nH]c2ccccc12)NC1CC1", "solubility kinetic": "> 38.9"},
      {"compound": "COc1cc([N+](=O)[O-])ccc1N1C(=O)C2C3C=CC(C4CC34)C2C1=O", "note": "(stereo not drawn)", "solubility kinetic": 7.2},
      {"compound": "CC(=O)c1sc2nc(CSc3nncn3C)[nH]c(=O)c2c1C", "solubility kinetic": "> 50.3"},
      {"compound": "O=C(Nc1ccc(Cl)cc1)c1csc(Cc2ccccc2)n1", "solubility kinetic": 1.1},
      {"compound": "COc1cccc(CNC(=O)CCCC(=O)NC(C)CCc2ccccc2)c1", "note": "(stereo not drawn)", "solubility kinetic": "> 57.4"},
      {"compound": "C=CCNC(=O)C(=O)NCC1CCCN1CC", "note": "(stereo not drawn)", "solubility kinetic": "> 35.9"},
      {"compound": "Cc1ccccc1OCCNC(=O)c1ccco1", "solubility kinetic": "> 36.8"},
      {"compound": "Brc1cnc2nc[nH]c2c1", "solubility kinetic": "> 29.7"},
      {"compound": "CS(=O)(=O)c1ccccc1C(=O)NC1CCCc2ccccc21", "note": "(stereo not drawn)", "solubility kinetic": "> 49.4"},
      {"compound": "COc1ccccc1NC(=O)COc1ccc2c(c1)OCO2", "solubility kinetic": 2.5},
      {"compound": "COC(=O)c1ccc(NC(=S)Nc2ccc(O)cc2)cc1", "solubility kinetic": 22.3},
      {"compound": "Cc1[nH]c2ccccc2c1-c1nc(N)sc1C", "solubility kinetic": "> 36.5"},
      {"compound": "O=C(N/C(=C\\c1ccccc1)C(=O)N1CCCCC1)c1ccc(Br)o1", "solubility kinetic": "> 60.5"}
    ]}
  ]
}
